{
  "source": "patent US12350317B2",
  "about": "“Immunotherapy for the treatment and prevention of inflammatory bowel disease” (THE UAB RESEARCH FOUNDATION, priority 2019, dated 2025)",
  "key": {"[1]": {"target": "DR0701 (HLA-DR7)", "test": "Flagellin peptide binding to HLA-DR (DR0701)", "design": "species or system human", "settings": "<20 = high affinity, 20-100 moderate affinity", "description": "(§1) CD4+ T cell effectors mediate colitis in mouse models. These effectors, for example, Th1 and Th17 are short-lived. The CD4+ T cell memory pool is a reservoir of chronicity and regenerating T effector cells. CD4+ TM cells are widely distributed in CBir1 TCR Tg mice (FIG. 1). Flagellin specific T cells can cause murine colitis, mainly Th17 mediated. Anti-CBir1 was detected in 50% of Crohn's patients and in multiple mouse models. The presence of anti-Cbir1 in CD patients is associated with small bowel (SB) involvement, fibrostenosis and internal perforating phenotypes, independent of anti-Saccharomyces cerevisiae antibodies (ASCA), anti-[…] antibodies and anti-OmpC antibodies. A subset of Crohn's patients has broad IgG reactivity to microbiota flagellins (FIG. 2). Flagellins have promiscuous T cell receptor epitopes. Therefore, whether microbiota flagellins contain epitope peptides that are broadly reactive in humans and can stimulate both TM and Tregs across a population of patients with Crohn's disease was studied. Peptides predicted to bind to 8 or more HLA-DRB1 molecules and to mouse H-2^b or H-2^d were studied. Thirty predicted flagellin epitopes were tested for binding to the four most common HLA-DR dimers (HLA-DR3, HLA-DR7, HLA-DR11 and HLA-DR15). All predicted flagellin epitopes bound at least one of the four HLA-DR dimers, and twenty of the predicted epitopes bound two or more."}, "[2]": {"target": "DR1501 (HLA-DR15) (Homo sapiens, UniProt P01903+P01911)", "test": "Flagellin peptide binding to HLA-DR (DR1501)", "settings": "<20 = high affinity, 20-100 moderate affinity", "description": "as §1"}, "[3]": {"tested_on": "microbiota flagellin-specific CD4+ T cells", "test": "Survival, proliferation and cytokine production of flagellin-specific CD4+ T cells from Crohn's patients", "settings": "for Cytokine production (IFNγ, TNFα and IL-17A) upon re-stimulation: 6-7 hours re-stimulation with APCs and Fla mix", "protocol": "(§2) Microbiota flagellin-specific CD4^+ T cells were labeled with proliferation dye and re-stimulated with autologous APCs plus Fla mix in the presence of 50 nM rapamycin, 1 mM metformin, or both. Phosphorylation of S6K was examined after 6 hours of stimulation (H and K), whereas CD4^+ T cell survival (I and L) and proliferation (J and M) were examined after 6-7 days.\nExpanded CD154^+ antigen-specific CD4^+ T cells were re-stimulated with autologous APCs and Fla mix, Fla mix with rapamycin, Fla mix with metformin, or Fla mix with rapamycin and metformin for 6-7 hours, with BFA added for the last 4 hours. CD4^+ T cells stimulated with CD3/CD28 beads were used as a positive control, whereas cells with no antigen added were used as a negative control. The cells were then stained for cytokines (TNF and IL-17A), activation of mTOR via the downstream marker phospho-S6K and analyzed by flow cytometry.\n(§3) Therefore, in order to target the metabolism of both naïve and memory CD4+ subsets, rapamycin, metformin, or both were tested, for their inhibitory effects on these cells post expansion."}, "[4]": {"tested_on": "CBir1Tg CD4+CD44- naive T cells", "test": "Naive CBir1Tg CD4+ T cell glucose uptake, viability, proliferation and Treg induction in vitro", "type": "cell-based, mouse", "method": "CBir1Tg CD4^+CD44-naïve T cells were isolated from the spleen and co-cultured with irradiated antigen-presenting-cells (APCs) isolated from C57BL/6 mice, in the presence of 1 μg/ml of MEP1 with (blue) or without (red) 100 nM rapamycin. Phosphorylation of S6K in CBir1Tg CD4^+ T cells was examined after 20 hrs of stimulation. […] OVA p323-339 stimulation was used as a negative control (grey). Representative flow plots are shown in (A-D, and I), and statistics of 3 replicated experiments are shown in (E-H, and J). For in vitro and in vivo suppression assays, naïve CD4+ cells were isolated from CBir1Tg·Foxp3gfp spleen and cultured with MEP1 and rapamycin for 6 days for Treg induction. Then live CD4^+CD25^+GFP^+ Treg cells were sorted with flow cytometry as CBir1Tg iTreg Rapa. Live CD4^+CD25^+GFP^+ cells freshly isolated from naïve CBir1Tg·Foxp3gfp spleen were used as control (CBir1Tg tTreg) for suppression assay in vitro. CFSE labeled responder CD4+CD44-(Tn) cells were isolated from congenic CBir1Tg or C57BL/6 mouse and co-cultured with indicated ratios of CBir1Tg Treg cells in the presence of 1 μg/ml MEP1 or anti-mouse-CD3 and APCs for 3.5 days. Representative graphs of antigen-specific and bystander suppression are shown in (K and M), respectively, and accumulated percentage of suppression are shown in (L and N). […]"}, "[5]": {"tested_on": "S6 kinase (S6K)", "test": "S6K phosphorylation in naive CBir1Tg CD4+ T cells co-cultured with APCs and MEP1", "type": "cell-based, mouse", "settings": "100 nM rapamycin, APCs and MEP1, 20 hrs", "method": "CBir1Tg CD4^+CD44-naïve T cells were isolated from the spleen and co-cultured with irradiated antigen-presenting-cells (APCs) isolated from C57BL/6 mice, in the presence of 1 μg/ml of MEP1 with (blue) or without (red) 100 nM rapamycin. Phosphorylation of S6K in CBir1Tg CD4^+ T cells was examined after 20 hrs of stimulation. CBir1Tg CD4^+ T cell viability, uptake of fluorescent glucose analog 2-NBDG, proliferation, and Treg induction were determined with FACS after 90 hrs of co-culture. OVA p323-339 stimulation was used as a negative control (grey). Representative flow plots are shown in (A-D, and I), and statistics of 3 replicated experiments are shown in (E-H, and J). For in vitro and in vivo suppression assays, naïve CD4+ cells were isolated from CBir1Tg·Foxp3gfp spleen and cultured with MEP1 and rapamycin for 6 days for Treg induction. Then live CD4^+CD25^+GFP^+ Treg cells were sorted with flow cytometry as CBir1Tg iTreg Rapa. Live CD4^+CD25^+GFP^+ cells freshly isolated from naïve CBir1Tg·Foxp3gfp spleen were used as control (CBir1Tg tTreg) for suppression assay in vitro. CFSE labeled responder CD4+CD44-(Tn) cells were isolated from congenic CBir1Tg or C57BL/6 mouse and co-cultured with indicated ratios of CBir1Tg Treg cells in the presence of 1 μg/ml MEP1 or anti-mouse-CD3 and APCs for 3.5 days. […]"}, "[6]": {"tested_on": "ribosomal protein S6 kinase", "test": "S6K phosphorylation in flagellin-specific CD4+ T cells from Crohn's patients", "type": "cell-based, human", "settings": "re-stimulation with pooled flagellin", "protocol": "as §2, §3\nTherefore, in order to target the metabolism of both naïve and memory CD4^+ subsets, rapamycin, metformin, or both, were tested for their inhibitory effects on these cells post expansion."}, "[7]": {"target": "DR1101 (HLA-DR11) (Homo sapiens, UniProt P01903+P01911, A100R/A169T/A87E/I96F/K41T/L162R/M171V/P40S/Q125H/Q178H/Q39Y/Q99D/R42S/S66Y/T262R/V115G/W38E)", "sequence (P01903 26-254, other chains not shown)": "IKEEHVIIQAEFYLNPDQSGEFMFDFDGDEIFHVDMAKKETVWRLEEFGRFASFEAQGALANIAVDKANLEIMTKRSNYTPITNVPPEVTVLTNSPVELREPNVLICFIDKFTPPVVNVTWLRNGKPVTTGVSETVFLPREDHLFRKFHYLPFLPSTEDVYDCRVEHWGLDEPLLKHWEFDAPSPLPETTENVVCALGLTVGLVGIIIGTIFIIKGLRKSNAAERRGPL", "test": "Flagellin peptide binding to HLA-DR (DR1101)", "settings": "<20 = high affinity, 20-100 moderate affinity", "description": "as §1"}, "[8]": {"tested_on": "donor CBir1Tg CD4+ TM cells", "test": "Ablation of pre-existing antigen-specific CD4+ TM cells in C57BL/6 mice upon MEP1 challenge", "type": "in vivo, mouse", "settings": "rapamycin 1 μg/g/day, metformin 150 μg/g/day i.p. 5 days after MEP1 challenge days 28 and 35; day 42", "protocol": "(§4) (A) CBir1Tg CD4^+CD44^+ TM cells were isolated from the spleen, labeled with CFSE, and co-cultured with irradiated APCs isolated from C57BL/6 mice in the presence of 1 μg/ml of MEP1, and 100 nM rapamycin, 1 mM metformin, or both. Absolute numbers of live and proliferating CD4^+ T cells post 90 hrs of culturing are shown respectively. OVA p323-339 stimulation was used as negative control. (B) Strategy of adoptive transfer, immunization, and ablation of donor CD4^+ TM cells. […] Mice without challenge and mice treated with 0.2% CMC post challenge were used as controls. Lymphocytes were isolated from the spleen on Day 42 and analyzed with FACS. Representative plots of donor/host CD4^+, donor CD4^+ TM, Treg, and Tfh are shown in (C), whereas statistics of corresponding absolute numbers are shown in (D-G).\n(§5) This was tested in vivo by targeting established microbiota antigen-specific CD4+ TM cells in the periphery. […] Upon antigen challenge, on days 28 and 35, recipient mice were treated with metformin, rapamycin, the combination of both, or drug vehicle for 5 consecutive days, respectively. Recipient mice with immunization but no antigen challenge were used as controls (FIG. 10B). Assessed by the absolute numbers recovered from the spleen."}, "[9]": {"tested_on": "CBir1Tg CD4+CD44+ TM cells", "test": "CBir1Tg CD4+ TM cells co-cultured with APCs and MEP1 in vitro", "type": "cell-based, mouse", "protocol": "as §4, §5"}},
  "data": [
    {"compound": "MATEMVKYSNANILSQAGQ [CBir1 p456-475]", "values": [
      {"measurement": "EC50 Ratio", "setting": "[1]", "value": 3.7},
      {"measurement": "EC50 Ratio", "setting": "[2]", "value": 0.32}
    ]},
    {"compound": "CO[C@H]1C[C@@H]2CC[C@@H](C)[C@@](O)(O2)C(=O)C(=O)N2CCCC[C@H]2C(=O)O[C@H]([C@H](C)C[C@@H]2CC[C@@H](O)[C@H](OC)C2)CC(=O)[C@H](C)/C=C(\\C)[C@@H](O)[C@@H](OC)C(=O)[C@H](C)C[C@H](C)/C=C/C=C/C=C/1C", "note": "[rapamycin]", "values": [
      {"measurement": "Cytokine production (IFNγ, TNFα and IL-17A) upon re-stimulation", "setting": "[3]", "value": "no effect"},
      {"measurement": "Reduction of cell proliferation", "setting": "[4]; 100 nM rapamycin, in presence of cognate antigen MEP1, 90 hrs", "value": "roughly 10 fold"},
      {"measurement": "Increase of Treg cells in percentage", "setting": "[4]; MEP1 and rapamycin vs MEP1 alone", "value": 20, "unit": "fold"},
      {"measurement": "Reduction of phosphorylation of S6 kinase (S6K)", "setting": "[5]", "value": "roughly 60%"},
      {"measurement": "Reduction of phosphorylation of S6K compared to antigen alone", "setting": "[6]; 50 nM rapamycin, 6 hours", "value": "~50", "unit": "%"}
    ]},
    {"compound": "MVVQHNLRAMNSNRMLGITQ [FlaX p1-20, Lachnospiraceae FlaX flagellin peptide 1-20]", "values": [
      {"measurement": "EC50 Ratio", "setting": "[2]", "value": 0.33}
    ]},
    {"compound": "MVVQHNLRAMNANRMLGIT [A4 Fla3 p1-19, Lachnospiraceae A4 Fla3 flagellin peptide 1-19]", "values": [
      {"measurement": "EC50 Ratio", "setting": "[1]", "value": 2.5},
      {"measurement": "EC50 Ratio", "setting": "[2]", "value": 0.32},
      {"measurement": "EC50 Ratio", "setting": "[7]", "value": 0.2}
    ]},
    {"compound": "CN(C)C(=N)N=C(N)N", "note": "[metformin]", "values": [
      {"measurement": "Cell death", "setting": "[3]; 50 nM rapamycin or 1 mM metformin, 6-7 days", "value": "lesser extent of increased cell death"},
      {"measurement": "Cell proliferation", "setting": "[3]; 50 nM rapamycin, 1 mM metformin, or both, 6-7 days", "value": "decreased proliferation"},
      {"measurement": "Cytokine production (IFNγ, TNFα and IL-17A) upon re-stimulation", "setting": "[3]", "value": "neither rapamycin or metformin treatment altered the cytokine production"},
      {"measurement": "Expansion of CBir1Tg CD4+ cells after antigen challenge (absolute numbers in spleen)", "setting": "[8]", "value": "no inhibitory result"},
      {"measurement": "Cell death / survival and inhibition of cell proliferation of CD4+ TM cells", "setting": "[9]", "value": "comparable effect, or even worse, than rapamycin"},
      {"measurement": "Inhibitory effect on the mTOR pathway", "setting": "[6]; 1 mM metformin alone", "value": "no inhibitory effect"}
    ]}
  ]
}
